Assay results reported in patent US20040057926A1, “Modulation of the immune response through the manipulation of arginine levels” (LSU Medical Center, priority 2002, published 2004).

How the values were obtained:
[1] = test system: T lymphocytes; assay: Co-culture in transwells of stimulated PM and stimulated normal T lymphocytes, CD3ζ expression; assay type: cell-based, human
Description: T-cells were isolated from mononuclear cells of healthy donors by T-cell enrichment columns (R&D Systems, Minneapolis, Minn.) according to manufacturer specifications. T-cell purity (CD3+) ranged between 89-95%. The cycle of internalization and re-expression of the TCR-CD3 complex was induced by T-cell stimulation with 1 μg/ml of anti-CD3, 100 ng/ml of anti-CD28 (Becton Dickinson) and 10 μg/ml of goat anti-mouse IgG (KPL, Gaithersburg, Md.). Cells were stimulated in the absence of L-Arg and added to the co-cultures 24 h after stimulation.
PM were cultured in 6 well plates in RPMI containing 150 μM L-Arg and stimulated with murine rIL-4 (50 U/ml) and murine rIL-13 (50 ng/ml), or murine rIFN-γ (100 U/ml) for 24 hours. Then 1×10^6 normal T-cells stimulated with anti-CD3 plus anti-CD28 or 1×10^6 Jurkat cells, were cultured in the top chamber of a transwell system having 0.4 μm pores (Falcon, Franklin lakes, N.J.). CD3ζ expression was measured in Jurkat cells or T lymphocytes at different time points. PM were detached using trypsin/EDTA and the expression of protein and RNA for CAT-2B, ASE I, ASE II and iNOS was tested by western blot and northern blot respectively. Cytoplasmic extracts from PM were used to test ASE activity. Supernatants from stimulated PM were used to measure NO production using the Griess reagent method (Molecular Probes, Eugene, Oreg.). In addition, the extra-cellular concentration of L-Arg was tested in supernatants by HPLC (Dr. Gu Yao Wu laboratory, University of Texas) as described previously. O'Quinn, P. R., D. A. Knabe, and G. Wu. 2002. Arginine catabolism in lactating porcine mammary tissue. J Anim Sci. 80:467-474.
Flow cytometry analysis was performed as previously described. Taheri, F., J. B. Ochoa, Z. Faghiri, K. Culotta, H. J. Park, M. S. Lan, A. H. Zea, and A. C. Ochoa. 2001. […] Fluorescence acquisition and analysis were done using a Coulter-EPICS XL flow cytometer (Beckman-Coulter) with a 488 nm argon laser. The data were expressed as mean channel fluorescence intensity (MFI).

[2] = test system: H. pylori arginase; conditions: McGee, manuscript in preparation; cited from earlier work
[3] = test system: ASE I; assay: Western blot for ASE I in PM cytoplasmic extracts; assay type: cell-based, mice; conditions: NOHA 100 μM, Nor-NOHA 50 μM
Description: Cytoplasmic extracts from PM, Jurkat cells or T lymphocytes were prepared as previously reported. Taheri, F., J. B. Ochoa, Z. Faghiri, K. Culotta, H. J. Park, M. S. Lan, A. H. Zea, and A. C. Ochoa. 2001. L-Arginine regulates the expression of the T-cell receptor zeta chain (CD3zeta) in Jurkat cells. Clin Cancer Res 7:958s-965s. Briefly, cells were resuspended in lysis buffer (50 mM HEPES, 150 mM NaCl, 5 mM EDTA, 1 mM NaOV4 and 0.5% Triton) containing 50 μg/ml of aprotinin, 50 μg/ml of leupeptin, 100 μg/ml of trypsin-chymotrypsin inhibitor and 2 mM PMSF. Lysates were centrifuged at 3000×g for 10 min at 4° C. Cytoplasmic extracts from Jurkat or T-cells were immunoblotted for CD3ζ and CD3ε. The expression ASE I, ASE II and iNOS was detected by immunoblot using PM extracts. GAPDH was used as housekeeping protein. Cytoplasmic extracts were electrophoresed in 12 or 8% Tris-Glycine gels (Novex, San Diego, Calif.), transferred to PVDF membranes and immunoblotted with the appropriate antibodies. The reactions were detected using the ECL kit (Amersham-Pharmacia).

[4] = test system: Jurkat cells; assay: CD3ζ chain expression in Jurkat cells on L-arginine depletion or replenishment (Western blot, flow cytometry); assay type: cell-based
Description: Next, it was tested whether L-arginine depletion altered the expression of the key elements of the T-cell antigen receptor and IL-2 receptor in Jurkat cells. […] The decreased expression of ζ chain was not due to an overall protein degradation since the expression of GAPDH and CD3ε was virtually unchanged over the same period of time. […] The initial decrease in CD3ζ could be seen as early as 24 hours, but continued up to 7 days in culture as compared to its expression in Jurkat cells cultured in C-RPMI that remains unchanged (data not shown).
Reappearance of CD3ζ chain occurred either by adding L-arginine alone at a concentration of 100 μM (FIGS. 4a, dashed line, and 4b, lane 3), or by replacing the TCM with C-RPMI (FIGS. 4a, solid line, and 4b, lane 4). […] The data discussed is representative of at least five experiments in each case.

| SMILES | CD3ζ in normal stimulated T lymphocytes co-cultured with IL-4+IL-13 activated PM [1] | inhibition of H. pylori arginase [2] | ASE I up regulation after IL-4+IL-13 stimulation [3] | L-Arg concentrations that cause the rapid decrease of CD3ζ chain ([4]; Jurkat cells, in vitro) | loss of CD3ζ on replenishing L-arginine in the tissue culture medium ([4]; L-arginine alone at 100 μM) |
| --- | --- | --- | --- | --- | --- |
| NC(=NCCC[C@H](N)C(=O)O)NO [NOHA, NG-hydroxy-L-arginine] | prevented the loss of CD3ζ | only partially inhibit H. pylori arginase | did not prevent ASE I up regulation | – | – |
| N=C(N)NCCC[C@H](N)C(=O)O [L-arginine] | – | – | – | below 40 μM | fully reversible |
